Read-outs that look alike come from different tables or passages of the source.
Key:
PRMT5-MTA = PRMT5-MTA (Homo sapiens, UniProt O14744); assay: Enzymatic inhibitory activity against PRMT5-MTA (AlphaScreen); format: biochemical
Method in brief: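 PRMT5/[…] (1 nM) was preincubated for 30 min at room temperature with 1 µM […] and 2.5 µM SAM, then exposed to compound (10-point, 3-fold from 1000 nM) for 15 min at 23 °C. Histone H4 substrate (5 nM) was added and reacted for 45 min at 23 °C. Symmetric dimethyl-R3 H4 was detected by AlphaScreen and IC50 calculated.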

HCT116-WT cells = assay: Inhibitory activity against cell proliferation (CellTiter Glo, 6 days), HCT116-WT; format: cell-based; settings: 144 h, HCT116-WT cells, 6 days, CellTiter Glo; read-out: HCT116-WT IC50
Method in brief: (§1)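 Following overnight attachment of 250 cells per well in McCoy's 5A medium with 10% FBS, compounds spanning 8 concentrations (4-fold, top 10000 nM) were applied for 6 days. Growth inhibition IC50 was derived from luminescent ATP signal.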

HCT116 MTAP KO cells = assay: Inhibitory activity against cell proliferation (CellTiter Glo, 6 days), HCT116 MTAP KO; format: cell-based; settings: for IC50: Homo sapiens, HCT-116, 144 h, HCT116 MTAP KO cells, 6 days, CellTiter Glo, read-out: HCT116 MTAP KO IC50; for Selectivity HCT 116-WT/ HCT116 MTAP KO: ratio of IC50 HCT116-WT / HCT116 MTAP KO
Method in brief: as §1

Chain of PRMT5-MTA (O14744 whole entry): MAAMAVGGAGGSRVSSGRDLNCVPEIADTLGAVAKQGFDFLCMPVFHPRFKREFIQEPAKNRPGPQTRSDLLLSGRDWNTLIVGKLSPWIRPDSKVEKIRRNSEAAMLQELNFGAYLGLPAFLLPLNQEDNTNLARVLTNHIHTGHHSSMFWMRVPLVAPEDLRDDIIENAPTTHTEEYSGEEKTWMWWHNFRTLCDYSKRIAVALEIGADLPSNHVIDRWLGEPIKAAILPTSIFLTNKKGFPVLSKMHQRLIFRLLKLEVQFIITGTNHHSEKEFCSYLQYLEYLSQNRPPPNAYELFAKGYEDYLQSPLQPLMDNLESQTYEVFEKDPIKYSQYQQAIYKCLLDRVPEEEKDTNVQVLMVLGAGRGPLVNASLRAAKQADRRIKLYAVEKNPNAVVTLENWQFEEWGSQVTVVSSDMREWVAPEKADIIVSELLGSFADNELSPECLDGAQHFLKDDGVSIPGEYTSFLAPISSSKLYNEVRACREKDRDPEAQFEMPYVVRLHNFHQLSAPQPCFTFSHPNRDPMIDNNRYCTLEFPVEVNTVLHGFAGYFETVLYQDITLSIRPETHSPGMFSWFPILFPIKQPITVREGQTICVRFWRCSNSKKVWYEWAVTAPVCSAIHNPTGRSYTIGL
Chain of PRMT5-MTA (Q9BQA1 whole entry partner): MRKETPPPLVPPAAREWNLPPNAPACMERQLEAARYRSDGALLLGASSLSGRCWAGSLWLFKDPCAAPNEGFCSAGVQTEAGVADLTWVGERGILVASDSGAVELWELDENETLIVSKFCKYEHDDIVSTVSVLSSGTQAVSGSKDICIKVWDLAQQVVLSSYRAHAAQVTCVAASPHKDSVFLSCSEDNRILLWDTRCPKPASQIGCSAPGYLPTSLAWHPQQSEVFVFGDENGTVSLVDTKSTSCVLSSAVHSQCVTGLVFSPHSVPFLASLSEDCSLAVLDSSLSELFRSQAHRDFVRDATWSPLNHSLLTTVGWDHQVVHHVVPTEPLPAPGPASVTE

| Compound | IC50 (PRMT5-MTA; read-out: IC50) [nM] | IC50 (HCT116-WT cells) [nM] | IC50 (HCT116 MTAP KO cells) [nM] | Selectivity HCT 116-WT/ HCT116 MTAP KO (HCT116 MTAP KO cells) | IC50 (PRMT5-MTA) [nM] |
| --- | --- | --- | --- | --- | --- |
| Cc1cc2nc(N)c3cnn(C)c3c2cc1C(=O)N1CC(C)CN1c1ccncc1F (stereo not drawn) [Example 379, (4-amino-1,7-dimethyl-1H-pyrazolo[4,3-c]quinolin-8-yl)(2-(3-fluoropyridin-4-yl)-4-methylpyrazolidin-1-yl)methanone] | 7.8 | 1820 | 40 | 45.38 |  |
| Cc1cc2nc(N)c3cnn(C)c3c2cc1C(=O)N1CC(C)CN1c1ccc(F)cc1F (stereo not drawn) [Example 381, (4-amino-1,7-dimethyl-1H-pyrazolo[4,3-c]quinolin-8-yl)(2-(2,4-difluorophenyl)-4-methylpyrazolidin-1-yl)methanone] | 4 | 2330 | 63 | 36.92 |  |
| Cc1cc2nc(N)c3cnn(C)c3c2cc1C(=O)N1CC(C)CN1c1ccccc1Cl (stereo not drawn) [Example 382, (4-amino-1,7-dimethyl-1H-pyrazolo[4,3-c]quinolin-8-yl)(2-(2-chlorophenyl)-4-methylpyrazolidin-1-yl)methanone] | 4.8 | 1540 | 124 | 12.40 |  |
| Cc1cc2nc(N)c3cnn(C)c3c2cc1C(=O)N1CC(C)CN1c1cccc(Cl)c1F (stereo not drawn) [Example 383, (4-amino-1,7-dimethyl-1H-pyrazolo[4,3-c]quinolin-8-yl)(2-(3-chloro-2-fluorophenyl)-4-methylpyrazolidin-1-yl)methanone] | 6 | 1770 | 50 | 35.34 |  |
| Cc1cc2nc(N)c3cnn(C)c3c2cc1C(=O)N1CC(C)CN1c1ccc(OC(F)(F)F)cn1 (stereo not drawn) [Example 384, (4-amino-1,7-dimethyl-1H-pyrazolo[4,3-c]quinolin-8-yl)(4-methyl-2-(5-(trifluoromethoxy)pyridin-2-yl)pyrazolidin-1-yl)m ethanone] | 4.1 | 3420 | 238 | 14.35 |  |
| CCOc1ccc(N2CC(C)CN2C(=O)c2cc3c(cc2C)nc(N)c2cnn(C)c23)nn1 (stereo not drawn) [Example 385, (4-amino-1,7-dimethyl-1H-pyrazolo[4,3-c]quinolin-8-yl)(2-(6-ethoxypyridazin-3-yl)-4-methylpyrazolidin-1-yl)methanone] | 5.4 | 3770 | 104 | 36.22 |  |
| CC1CN(C(=O)c2cc3c(cc2Cl)nc(N)c2cnn(C)c23)N(c2ccccc2F)C1 (stereo not drawn) [Example 386, (4-amino-7-chloro-1-methyl-1H-pyrazolo [4,3-c]quinolin-8-yl)(2-(2-fluorophenyl)-4-methylpyrazolidin-1-yl)methanone] | 6.2 | 336 | 13 | 25.85 |  |
| Cc1cc2nc(N)c3cnn(C)c3c2cc1C(=O)N1CC(C)CN1c1cncc(F)c1 (stereo not drawn) [Example 387, (4-amino-1,7-dimethyl-1H-pyrazolo[4,3-c]quinolin-8-yl)(2-(5-fluoropyridin-3-yl)-4-methylpyrazolidin-1-yl)methanone] | 3.7 | 2470 | 90 | 27.40 |  |
| Cc1cc2nc(N)c3cnn(C)c3c2cc1C(=O)N1CCC(C)N1c1ncc(Br)cc1F (stereo not drawn) [Example 390, (4-amino-1,7-dimethyl-1H-pyrazolo[4,3-c]quinolin-8-yl)(2-(5-bromo-3-fluoropyridin-2-yl)-3-methylpyrazolidin-1-yl)metha none] | 8.6 | > 10000 | 233 | >42.92 |  |
| Cc1cc2nc(N)c3cnn(C)c3c2cc1C(=O)N1C(C)CCN1c1ncc(Br)cc1F (stereo not drawn) [Example 391, (4-amino-1,7-dimethyl-1H-pyrazolo[4,3-c]quinolin-8-yl)(2-(5-bromo-3-fluoropyridin-2-yl)-5-methylpyrazolidin-1-yl)metha none] | 7.4 | 2850 | 84 | 33.94 |  |
| CC1CN(C(=O)c2cc3c(cc2F)nc(N)c2cnn(C)c23)N(c2ncccc2F)C1 (stereo not drawn) [Example 393, (4-amino-7-fluoro-1-methyl-1H-pyrazolo [4,3-c]quinolin-8-yl)(2-(3-fluoropyridin-2-yl)-4-methylpyrazolidin-1-yl)methanone] | 3.4 | 502 | 9.8 | 51.22 |  |
| Cc1cc2nc(N)c3cnn(C)c3c2cc1C(=O)N1CC(C)CN1c1ncncc1F (stereo not drawn) [Example 395, (4-amino-1,7-dimethyl-1H-pyrazolo[4,3-c]quinolin-8-yl)(2-(5-fluoropyrimidin-4-yl)-4-methylpyrazolidin-1-yl)methanone] | 4.9 | 2710 | 66 | 41.05 |  |
| Cc1cc2nc(N)c3cnn(C)c3c2cc1C(=O)N1CC(C)CN1c1ccccc1 (stereo not drawn) [Example 396, (4-amino-1,7-dimethyl-1H-pyrazolo[4,3-c]quinolin-8-yl)(4-methyl-2-phenylpyrazolidin-1-yl)methanone] | 5.2 | 4830 | 298 | 16.21 |  |
| Cc1cc2nc(N)c3cnn(C)c3c2cc1C(=O)N1CC(C)CN1c1cnccn1 (stereo not drawn) [Example 397, (4-amino-1,7-dimethyl-1H-pyrazolo[4,3-c]quinolin-8-yl)(4-methyl-2-(pyrazin-2-yl)pyrazolidin-1-yl)methanone] | 15 | 6790 | 197 | 34.46 |  |
| CC1CN(C(=O)c2cc3c(cc2Cl)nc(N)c2cnn(C)c23)N(c2ncccc2F)C1 (stereo not drawn) [Example 398, (4-amino-7-chloro-1-methyl-1H-pyrazolo [4,3-c]quinolin-8-yl)(2-(3-fluoropyridin-2-yl)-4-methylpyrazolidin-1-yl)methanone] | 3.9 | 1620 | 39 | 41.49 |  |
| Cc1cc2nc(N)c3cnn(C)c3c2cc1C(=O)N1CC(C)CN1c1c(F)cccc1F (stereo not drawn) [Example 400, (4-amino-1,7-dimethyl-1H-pyrazolo[4,3-c]quinolin-8-yl)(2-(2,6-difluorophenyl)-4-methylpyrazolidin-1-yl)methanone] | 5.8 | 1870 | 33 | 56.79 |  |
| COc1ccccc1N1CC(C)CN1C(=O)c1cc2c(cc1C)nc(N)c1cnn(C)c12 (stereo not drawn) [Example 401, (4-amino-1,7-dimethyl-1H-pyrazolo[4,3-c]quinolin-8-yl)(2-(2-methoxyphenyl)-4-methylpyrazolidin-1-yl)methanone] | 3.5 | > 10000 | 204 | >49.02 |  |
| CC1CN(C(=O)c2cc3c(cc2Cl)nc(N)c2cnn(C)c23)N(c2cccc(F)c2F)C1 (stereo not drawn) [Example 402, (4-amino-7-chloro-1-methyl-1H-pyrazolo [4,3-c]quinolin-8-yl)(2-(2,3-difluorophenyl)-4-methylpyrazolidin-1-yl)methanone] | 6.4 | 569 | 24 | 23.71 |  |
| Cc1cc2nc(N)c3cnn(C)c3c2cc1C(=O)N1CC(C)CN1c1cccc(Cl)n1 (stereo not drawn) [Example 403, (4-amino-1,7-dimethyl-1H-pyrazolo[4,3-c]quinolin-8-yl)(2-(6-chloropyridin-2-yl)-4-methylpyrazolidin-1-yl)methanone] | 3.8 | 277 | 14 | 19.79 |  |
| Cc1cc2nc(N)c3cnn(C)c3c2cc1C(=O)N1CC(C)CN1c1cccc(Br)n1 (stereo not drawn) [Example 404, (4-amino-1,7-dimethyl-1H-pyrazolo[4,3-c]quinolin-8-yl)(2-(6-bromopyridin-2-yl) -4-methylpyrazolidin-1-yl)methanone] | 6.6 | 114 | 4.6 | 24.78 |  |
| Cc1cc2nc(N)c3cnn(C)c3c2cc1C(=O)N1CC(C)CN1c1cccc(C2CC2)n1 (stereo not drawn) [Example 405, (4-amino-1,7-dimethyl-1H-pyrazolo[4,3-c]quinolin-8-yl)(2-(6-cyclopropylpyridin-2-yl) -4-methylpyrazolidin-1-yl)methanone] | 12.3 | 926 | 29 | 31.93 |  |
| COc1cccc(N2CC(C)CN2C(=O)c2cc3c(cc2C)nc(N)c2cnn(C)c23)n1 (stereo not drawn) [Example 406] |  | 906 | 23 | 39.39 | 4.3 |
| Cc1cc2nc(N)c3cnn(C)c3c2cc1C(=O)N1CC(CC(F)(F)F)CN1c1ncccc1F (stereo not drawn) [Example 408] |  | 203 | 10 | 20.30 | 4.8 |
| Cc1cc2nc(N)c3cnn(C)c3c2cc1C(=O)N1CC2(CN1c1ncccc1F)CC(F)(F)C2 [Example 410, (4-amino-1,7-dimethyl-1H-pyrazolo[4,3-c]quinolin-8-yl)(2,2-difluoro-7-(3-fluoropyridin-2-yl)-6,7-diazaspiro[3.4]octan-6-yl)methanone] | 5.2 | 219 | 9 | 24.33 |  |

— EP4745134A1 (Jiangsu Yahong Meditech Co., Ltd., priority 2023, dated 2025)
